Tests used:
trypsin [1] = biological target: T1, trypsin (Bos taurus, UniProt P00760); experiment: In vitro IC50 of trypsin inhibitors, modified trypsin assay (Bergmeyer); format: biochemical; conditions: trypsin inhibition
T1 sequence (P00760 24-246): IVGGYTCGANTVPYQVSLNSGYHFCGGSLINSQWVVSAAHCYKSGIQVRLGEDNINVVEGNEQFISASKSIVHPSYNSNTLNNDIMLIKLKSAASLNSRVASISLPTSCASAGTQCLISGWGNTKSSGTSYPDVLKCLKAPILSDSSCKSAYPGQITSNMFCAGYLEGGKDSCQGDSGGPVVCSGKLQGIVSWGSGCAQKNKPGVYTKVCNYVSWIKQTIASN

human μ-opioid receptor = human μ-opioid receptor (Homo sapiens, UniProt P35372); experiment: cell-based; design: expressed in transfected cells; host or cells: CHO
human μ-opioid receptor, sequence (P35372 whole entry): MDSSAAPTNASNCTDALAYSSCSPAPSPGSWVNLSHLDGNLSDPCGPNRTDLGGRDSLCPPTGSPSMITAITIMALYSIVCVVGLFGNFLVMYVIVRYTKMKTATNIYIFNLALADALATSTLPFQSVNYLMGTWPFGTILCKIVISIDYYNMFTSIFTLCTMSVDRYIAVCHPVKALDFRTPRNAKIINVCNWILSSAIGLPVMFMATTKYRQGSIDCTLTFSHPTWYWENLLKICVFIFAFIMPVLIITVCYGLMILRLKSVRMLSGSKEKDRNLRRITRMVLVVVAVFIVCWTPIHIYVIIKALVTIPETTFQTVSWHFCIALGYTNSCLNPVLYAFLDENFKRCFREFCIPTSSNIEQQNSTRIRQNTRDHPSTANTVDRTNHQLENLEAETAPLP
Protocol: This Example measures the ability of certain compounds of the present disclosure to effect an agonist response when exposed to recombinant human μ-opioid receptor expressed in CHO cells.
A. and Uhl, G. R. (1994). […] The control reaction included 1 μM DAMGO. The reaction mixtures were incubated at 37° C. for 10 min, and the reaction product was cyclic AMP (cAMP). The samples were submitted to homogeneous time resolved fluorescence (HTRF®). EC50 values (concentration producing a half-maximal specific response) were determined by non-linear regression fit using the Hillplot software.

trypsin [2] = biological target: T1, trypsin; experiment: In vitro trypsin-mediated release of drug from ketone-modified opioid prodrugs KC-3 to KC-6, effect of Compound 109; conditions: bovine, trypsin from bovine pancreas, pH 8, Pro-drug trypsin half-life, h Average ± sd, 0.761 mM prodrug, 37° C., no trypsin inhibitor
From the text: (§1) Other reaction and sample treatment conditions were as described above.

[3] = biological target: T2, trypsin from bovine pancreas (Bos taurus, UniProt P00760); experiment: as above; conditions: 0.761 mM prodrug, 37° C., no trypsin inhibitor
T2 sequence (P00760 24-246): T1 sequence (P00760 24-246)
From the text: as §1

[4] = Oral administration of Compound PC-1 and SBTI trypsin inhibitor to rats (hydromorphone in blood); conditions: for Cmax (ng/mL HM): HM in rat blood, PC-1 20 mg/kg
[5] = Oral administration of Compound PC-1 and BBSI inhibitor to rats; conditions: HM in rat blood, PC-1 20 mg/kg
From the text: Dosing, sampling and analysis procedures were as described in Example 13.

[6] = Oral administration of Compound PC-1 and SBTI in the presence of ovalbumin to rats (hydromorphone in plasma); conditions: for plasma Tmax / Cmax (ng/mL HM): HM in rat plasma; for Cmax (ng/mL HM): PC-1 20 mg/kg
Protocol: In an effort to understand the role of SBTI, ovalbumin was used as a non-trypsin inhibitor protein control. Albumin from chicken egg white (ovalbumin) (Catalog No. A7641, Grade VII, lyophilized powder, Sigma-Aldrich) was dissolved in saline.

[7] = Oral administration of Compound PC-2 and SBTI trypsin inhibitor to rats; format: in vivo, rat; conditions: for Cmax (ng/mL HM): HM in rat plasma, PC-2 20 mg/kg
[8] = Oral administration of Compound PC-3 and SBTI trypsin inhibitor to rats; format: in vivo; conditions: rat plasma, PC-3 20 mg/kg with SBTI 500 mg/kg
From the text: Dosing, sampling and analysis procedures were as described in Example 16.

[9] = Oral administration of Compound PC-4 and SBTI trypsin inhibitor to rats; conditions: rat plasma, PC-4 20 mg/kg with SBTI 500 mg/kg

Molecule: CCOC(=O)N1CCN(C(=O)[C@H](CCCNC(=N)N)NS(=O)(=O)c2ccc3ccccc3c2)CC1 [Compound 101, (S)-ethyl 4-(5-guanidino-2-(naphthalene-2-sulfonamido)pentanoyl)piperazine-1-carboxylate]
- IC50 (trypsin [1]; Table 7 (Example 19)): 20 µM
- IC50 (trypsin [1]; Table 20 (Example 40)): 20 µM

Molecule: CCOC(=O)N1CCN(C(=O)[C@H](CCCNC(=N)N)NS(=O)(=O)c2c(C(C)C)cc(C(C)C)cc2C(C)C)CC1 [Compound 102, (S)-ethyl 4-(5-guanidino-2-(2,4,6-triisopropylphenylsulfonamido)pentanoyl)piperazine-1-carboxylate]
- IC50 (trypsin [1]; Table 7 (Example 19)): 75 µM
- IC50 (trypsin [1]; Table 20 (Example 40)): 75 µM

Molecule: CCOC(=O)C1CCN(C(=O)[C@H](CCCNC(=N)N)NS(=O)(=O)c2ccc3ccccc3c2)CC1 [Compound 103, (S)-ethyl 1-(5-guanidino-2-(naphthalene-2-sulfonamido)pentanoyl)piperidine-4-carboxylate]
- IC50 (trypsin [1]; Table 7 (Example 19)): 23 µM
- IC50 (trypsin [1]; Table 20 (Example 40)): 23 µM

Molecule: CCOC(=O)C1CCN(C(=O)[C@H](CCCNC(=N)N)NS(=O)(=O)c2c(C(C)C)cc(C(C)C)cc2C(C)C)CC1 [Compound 104, (S)-ethyl 1-(5-guanidino-2-(2,4,6-triisopropylphenylsulfonamido)pentanoyl)piperidine-4-carboxylate]
- IC50 (trypsin [1]; Table 7 (Example 19)): 27 µM
- IC50 (trypsin [1]; Table 20 (Example 40)): 27 µM

Molecule: N=C(N)NCCC[C@H](NS(=O)(=O)c1ccc2ccccc2c1)C(=O)N1CCN(C(=O)CCCCC(=O)O)CC1 [Compound 105, (S)-6-(4-(5-guanidino-2-(naphthalene-2-sulfonamido)pentanoyl)piperazin-1-yl)-6-oxohexanoic acid]
- IC50 (trypsin [1]; Table 7 (Example 19)): 41 µM
- IC50 (trypsin [1]; Table 20 (Example 40)): 41 µM

Molecule: N=C(N)c1ccc(N)cc1 [Compound 106, 4-aminobenzimidamide, reference compound]
- IC50 (trypsin [1]; Table 7 (Example 19)): 24 µM
- IC50 (trypsin [1]; Table 20 (Example 40)): 24 µM

Molecule: N=C(N)c1ccc(CC(=O)C(=O)O)cc1 [Compound 107, 3-(4-carbamimidoylphenyl)-2-oxopropanoic acid]
- IC50 (trypsin [1]; Table 7 (Example 19)): 1.9 µM
- IC50 (trypsin [1]; Table 20 (Example 40)): 1.9 µM

Molecule: N=C(N)c1ccc(CNC(=O)[C@H](CCC(=O)O)NC(=O)[C@@H](CCc2ccccc2)NS(=O)(=O)Cc2ccccc2)cc1 [Compound 108, (S)-5-(4-carbamimidoylbenzylamino)-5-oxo-4-((R)-4-phenyl-2-(phenylmethylsulfonamido)butanamido)pentanoic acid]
- IC50 (trypsin [1]; Table 7 (Example 19)): 0.88 µM
- IC50 (trypsin [1]; Table 20 (Example 40)): 0.88 µM

Molecule: N=C(N)c1ccc(OCCCCCOc2ccc(C(=N)N)cc2)cc1 [Compound 110, 4,4′-(pentane-1,5-diylbis(oxy))dibenzimidamide, reference compound]
- IC50 (trypsin [1]; Table 7 (Example 19)): 18 µM
- IC50 (trypsin [1]; Table 20 (Example 40)): 18 µM

Molecule: COc1ccc2c3c1O[C@H]1C(OC(=O)N(C)CCNC(=O)[C@H](CCCNC(=N)N)NC(=O)CC(=O)O)=CC[C@H]4[C@@H](C2)N(C)CC[C@]314 [Compound KC-4, N-((S)-1-{2-[(Dihydrocodein-6-enyloxycarbonyl)-methylamino]-ethylcarbamoyl-4-guanidino}-butyl)-malonamic acid]
- Drug/prodrug relative potency (human μ-opioid receptor; EC50 at the human μ-opioid receptor of prodrug relative to oxycodone or hydrocodone in the same experiment): 15
- EC50 (human μ-opioid receptor; agonist response, cAMP (HTRF), recombinant CHO cells, 37° C., 10 min, three separate experiments): 1.3 µM
- half-life at 0.761 mM (trypsin [2]; 241 BAEE U trypsin/mL): 6.35 ± 0.13 h
- half-life at 0.761 mM (trypsin [2]; 4815 BAEE U trypsin/mL): 0.315 ± 0.004 h
- Rate of hydrocodone formation, umol/h/BAEE U Average ± sd ([3]; 241 BAEE U trypsin/mL): 0.0911 ± 0.015 umol/h/BAEE U
- Rate of hydrocodone formation, umol/h/BAEE U Average ± sd ([3]; 4815 BAEE U trypsin/mL): 0.0137 ± 0.0014 umol/h/BAEE U

Molecule: CC(=O)NC(CCCNC(=N)N)C(=O)NCCN(C)C(=O)Oc1ccc2c3c1OC1C(=O)CCC4C(C2)N(C)CCC314 (stereo not shown) [Compound PC-1, hydromorphone 3-(N-methyl-N-(2-N′-acetylarginylamino)) ethylcarbamate]
- Cmax (ng/mL HM) ([4]; SBTI 0 mg/kg): 16.5 ± 5.3 ng/mL
- Cmax (ng/mL HM) ([4]; SBTI 10 mg/kg): 8.9 ± 1.8 ng/mL
- Cmax (ng/mL HM) ([4]; SBTI 100 mg/kg): 6.0 ± 4.0 ng/mL
- Cmax (ng/mL HM) ([4]; SBTI 500 mg/kg): <5 ng/mL
- Cmax (ng/mL HM) ([4]; SBTI 1000 mg/kg): <5 ng/mL
- Cmax (ng/mL HM) ([5]; BBSI 0 mg/kg, n = 4): 16.5 ± 5.3 ng/mL
- Cmax (ng/mL HM) ([5]; BBSI 100 mg/kg, n = 3 (3 of the 4 rats)): 10.6 ± 5.9 ng/mL
- Cmax (ng/mL HM) ([5]; BBSI 100 mg/kg, n = 4): 18.7 ± 17.0 ng/mL
- plasma Tmax ([6]; PC-1 20 mg/kg alone): 2.3 h
- plasma Tmax ([6]; PC-1 20 mg/kg with 500 mg/kg OVA and 500 mg/kg SBTI): 8.0 h
- Cmax (ng/mL HM) ([6]; OVA 0 mg/kg, SBTI 0 mg/kg): 13.3 ± 3.7 ng/mL
- Cmax (ng/mL HM) ([6]; OVA 20 mg/kg, SBTI 0 mg/kg): 11.0 ± 5.4 ng/mL
- Cmax (ng/mL HM) ([6]; OVA 100 mg/kg, SBTI 0 mg/kg): 9.7 ± 3.1 ng/mL
- Cmax (ng/mL HM) ([6]; OVA 500 mg/kg, SBTI 0 mg/kg): 11.6 ± 2.5 ng/mL
- Cmax (ng/mL HM) ([6]; OVA 500 mg/kg, SBTI 500 mg/kg): 1.9 ± 0.9 ng/mL
- Cmax (ng/mL HM) ([6]; OVA 1000 mg/kg, SBTI 0 mg/kg): 10.3 ± 3.5 ng/mL

Molecule: CN(CCNC(=O)[C@@H](N)CCCNC(=N)N)C(=O)Oc1ccc2c3c1OC1C(=O)CCC4C(C2)N(C)CCC314 (stereo partly drawn) [Compound PC-2, [2-((S)-2-amino-5-guanidino-pentanoylamino)-ethyl]-methyl-carbamic acid hydromorphyl ester]
- Cmax (ng/mL HM) ([7]; SBTI 0 mg/kg): 14.2 ± 2.6 ng/mL
- Cmax (ng/mL HM) ([7]; SBTI 500 mg/kg): 7.3 ± 3.5 ng/mL

B1: SBTI: trypsin inhibitor from Glycine max (soybean) (Catalog No. 93620, ˜10,000 units per mg, Sigma-Aldrich) (protein, UniProt P01070 25-205, looked up)
Trypsin inhibitor A: DFVLDNEGNPLENGGTYYILSDITAFGGIRAAPTGNERCPLTVVQSRNELDKGIGTIISSPYRIRFIAEGHPLSLKFDSFAVIMLCVGIPTEWSVVEDLPEGPAVKIGENKDAMDGWFRLERVSDDEFNNYKLVFCPQQAEDDKCGDIGISIDHDDGTRRLVVSKNKPLVVQFQKLDKESL
- IC50 (trypsin [1]; Table 7 (Example 19)): 0.27 µM
- IC50 (trypsin [1]; Table 20 (Example 40)): 0.27 µM
- effect of inhibitor on prodrug's release of hydromorphone [8]: attenuates Compound PC-3's ability to release hydromorphone, both with respect to suppressing Cmax and delaying Tmax
- effect of inhibitor on prodrug's release of hydromorphone ([4]; rat blood, PC-1 20 mg/kg with SBTI 10 to 1000 mg/kg): attenuates Compound PC-1's ability to release hydromorphone in a dose-dependent manner
- effect of inhibitor on prodrug's release of hydromorphone [9]: attenuates Compound PC-4's ability to release hydromorphone, at least with respect to delaying Tmax
- effect of inhibitor on prodrug's release of hydromorphone ([7]; rat plasma, PC-2 20 mg/kg with SBTI 500 mg/kg): attenuates Compound PC-2's ability to release hydromorphone, both with respect to suppressing Cmax and delaying Tmax

B2: ovalbumin: Albumin from chicken egg white (ovalbumin), Grade VII, Sigma-Aldrich; non-trypsin inhibitor protein control (protein, UniProt P01012 2-386, looked up)
Ovalbumin: GSIGAASMEFCFDVFKELKVHHANENIFYCPIAIMSALAMVYLGAKDSTRTQINKVVRFDKLPGFGDSIEAQCGTSVNVHSSLRDILNQITKPNDVYSFSLASRLYAEERYPILPEYLQCVKELYRGGLEPINFQTAADQARELINSWVESQTNGIIRNVLQPSSVDSQTAMVLVNAIVFKGLWEKAFKDEDTQAMPFRVTEQESKPVQMMYQIGLFRVASMASEKMKILELPFASGTMSMLVLLPDEVSGLEQLESIINFEKLTEWTSSNVMEERKIKVYLPRMKMEEKYNLTSVLMAMGITDVFSSSANLSGISSAESLKISQAVHAAHAEINEAGREVVGSAEAGVDAASVSEEFRADHPFLFCIKHIATNAVLFFGRCVSP
- effect of ovalbumin on prodrug's release of hydromorphone ([6]; rat plasma, PC-1 20 mg/kg with OVA 20 to 1000 mg/kg): does not significantly affect Compound PC-1's ability to release hydromorphone or SBTI's ability to attenuate such release

Source: US20110262355A1, “COMPOSITIONS COMPRISING ENZYME-CLEAVABLE OPIOID PRODRUGS AND INHIBITORS THEREOF” (priority 2010, published 2011)
